# Measurements taken from PMC6327044, “A chemical biology screen identifies a vulnerability of neuroendocrine cancer cells to SQLE inhibition” (Nature Communications, 2019).
# Key:
# Assay in all cases: cells
# Parameters in all cases: species or system panel of 482 human cancer cell lines; ATPLite luminescence growth inhibition after treatment, nine-point dilution curve, 482 cancer cell lines, 384-well
# Settings in all cases: 72 h, recommended growth medium
# [1] = tested on: HTK_HAEMATOPOIETIC_AND_LYMPHOID_TISSUE
# Procedure: (§1) Cells were seeded in recommended growth media in black 384-well tissue culture treated plates at 500 cells per well. Cells were equilibrated in assay plates via centrifugation and placed in incubators for 24 h before treatment. […] Treated assay plates were incubated with compounds for 72 h and subsequently were developed for endpoint analysis using ATPLite. Each compound was assessed using a nine-point dilution curve. Cells were defined as sensitive to a given compound based on GI75 < 2 μM with manual quality control of curve fit. GI75 is defined as a drug concentration that causes a 75% reduction in assay readout relative to dimethyl sulfoxide (DMSO)-treated controls. To identify novel cancer vulnerabilities, we screened a panel of 482 cell lines with a diverse set of metabolic inhibitors. […] Given that SCLC is thought to arise from neuroendocrine cells in the lung[9], we tested the NB-598 sensitivity in a panel of 42 SCLC cell lines. We calculated a quantitative metric of sensitivity for each cell line based on the area under the curve (AUC) of the mu/mu.max curve to more accurately capture the potency and extent of NB-598 effects. […] We categorized the SCLC cell lines as sensitive (5/42), moderate (11/42), and insensitive (26/42) (Fig. 1c and Supplementary Data 2) and focused all subsequent efforts on this indication. […] To further understand the patterns of sensitivity, we conducted RNA sequencing (RNA-Seq; Supplementary Data 3) and proteomic (Supplementary Data 4) characterization of the SCLC panel to identify unbiased expression signatures associated with enhanced NB-598 response (Supplementary Fig. 1 and Supplementary Fig. 2). Given the growing understanding that SCLC tumors can be further subdivided based on the status of lineage-defining transcription factors, ASLC1 and NEUROD1, we specifically investigated NB-598 response as the function of ASCL1 and NEUROD1 expression levels. […] To further dissect the NB-598 response within the ASCL1-high/NEUROD-low subset of 25 cell lines, we identified RNA-Seq and proteomics expression signatures associated with NB
# SW1116_LARGE_INTESTINE = tested on: SW1116_LARGE_INTESTINE
# Procedure: as §1
# [2] = tested on: MINO_HAEMATOPOIETIC_AND_LYMPHOID_TISSUE
# Procedure: as §1
# [3] = tested on: HUNS1_HAEMATOPOIETIC_AND_LYMPHOID_TISSUE
# Procedure: as §1
# NCIH1155_LUNG = tested on: NCIH1155_LUNG
# Procedure: as §1
# NCIH1623_LUNG = tested on: NCIH1623_LUNG
# Procedure: as §1
# [4] = tested on: KMS34_HAEMATOPOIETIC_AND_LYMPHOID_TISSUE
# Procedure: as §1
# OAW28_OVARY = tested on: OAW28_OVARY
# Procedure: as §1
# [5] = tested on: SUDHL6_HAEMATOPOIETIC_AND_LYMPHOID_TISSUE
# Procedure: as §1
# MFE280_ENDOMETRIUM = tested on: MFE280_ENDOMETRIUM
# Procedure: as §1
# NCIH2106_LUNG = tested on: NCIH2106_LUNG
# Procedure: as §1
# [6] = tested on: OCILY3_HAEMATOPOIETIC_AND_LYMPHOID_TISSUE
# Procedure: as §1
# HCC2218_BREAST = tested on: HCC2218_BREAST
# Procedure: as §1
# NCIH1944_LUNG = tested on: NCIH1944_LUNG
# Procedure: as §1
# TE6_OESOPHAGUS = tested on: TE6_OESOPHAGUS
# Procedure: as §1
# [7] = tested on: SUDHL2EPST_HAEMATOPOIETIC_AND_LYMPHOID_TISSUE
# Procedure: as §1
compound,measurement,setting,value
CCN(C/C=C/C#CC(C)(C)C)Cc1cccc(OCc2cc(-c3ccsc3)cs2)c1 [NB-598],GI50,[1],4770 nM
same,GI50,SW1116_LARGE_INTESTINE,19100 nM
same,GI50,[2],33400 nM
same,GI50,[3],170 nM
same,GI50,NCIH1155_LUNG,5.17 nM
same,GI50,NCIH1623_LUNG,19.4 nM
same,GI50,[4],2070 nM
same,GI50,OAW28_OVARY,65400 nM
same,GI50,[5],78.9 nM
same,GI50,MFE280_ENDOMETRIUM,16.9 nM
same,GI50,NCIH2106_LUNG,12.1 nM
same,GI50,[6],91.1 nM
same,GI50,HCC2218_BREAST,7170 nM
same,GI50,NCIH1944_LUNG,27.1 nM
same,GI50,TE6_OESOPHAGUS,9280 nM
same,GI50,[7],25.7 nM
